From paper PMC3848336, “Aurora Isoform Selectivity: Design and Synthesis of Imidazo[4,5-b]pyridine Derivatives as Highly Selective Inhibitors of Aurora-A Kinase in Cells” (Journal of Medicinal Chemistry, 2013)

Key:
Test in all cases: Kinase selectivity profiling
Type in all cases: biochemical
[1] = system: AMPK; details: 1 µM; 110-kinase panel
Excerpt: (§1) Compound 28c was profiled against a panel of 110 kinases at the International Centre for Protein Kinase Profiling, Division of Signal Transduction Therapy, University of Dundee. Compound 40f was profiled against a panel of 50 kinases (MRC-PPU Express Screen) also at the International Centre for Protein Kinase Profiling.

[2] = target: BRSK2 (Homo sapiens, UniProt Q8IWQ3); details: 110-kinase panel
Excerpt: as §1

[3] = target: CLK2 (Homo sapiens, UniProt P49760); details: 110-kinase panel
Excerpt: as §1

[4] = target: CSK (Homo sapiens, UniProt P41240); details: 110-kinase panel
Excerpt: as §1

[5] = target: DAPK1 (Homo sapiens, UniProt P53355); details: 110-kinase panel
Excerpt: as §1

[6] = target: DYRK3 (Homo sapiens, UniProt O43781); details: 110-kinase panel
Excerpt: as §1

[7] = target: EPH-A4 (Homo sapiens, UniProt P54764); details: 110-kinase panel, read-out: % activity remaining, EPH2A4
Excerpt: as §1

[8] = target: EPH-B1 (Homo sapiens, UniProt P54762); details: 110-kinase panel, read-out: % activity remaining, EPH2B1
Excerpt: as §1

[9] = target: EPH-B2 (Homo sapiens, UniProt P29323); details: 110-kinase panel, read-out: % activity remaining, EPH2B2
Excerpt: as §1

[10] = target: EPH-B3 (Homo sapiens, UniProt P54753); details: 110-kinase panel, read-out: % activity remaining, EPH2B3
Excerpt: as §1

[11] = target: EPH-B4 (Homo sapiens, UniProt P54760); details: 110-kinase panel, read-out: % activity remaining, EPH2B4
EPH-B4, sequence (P54760 16-987): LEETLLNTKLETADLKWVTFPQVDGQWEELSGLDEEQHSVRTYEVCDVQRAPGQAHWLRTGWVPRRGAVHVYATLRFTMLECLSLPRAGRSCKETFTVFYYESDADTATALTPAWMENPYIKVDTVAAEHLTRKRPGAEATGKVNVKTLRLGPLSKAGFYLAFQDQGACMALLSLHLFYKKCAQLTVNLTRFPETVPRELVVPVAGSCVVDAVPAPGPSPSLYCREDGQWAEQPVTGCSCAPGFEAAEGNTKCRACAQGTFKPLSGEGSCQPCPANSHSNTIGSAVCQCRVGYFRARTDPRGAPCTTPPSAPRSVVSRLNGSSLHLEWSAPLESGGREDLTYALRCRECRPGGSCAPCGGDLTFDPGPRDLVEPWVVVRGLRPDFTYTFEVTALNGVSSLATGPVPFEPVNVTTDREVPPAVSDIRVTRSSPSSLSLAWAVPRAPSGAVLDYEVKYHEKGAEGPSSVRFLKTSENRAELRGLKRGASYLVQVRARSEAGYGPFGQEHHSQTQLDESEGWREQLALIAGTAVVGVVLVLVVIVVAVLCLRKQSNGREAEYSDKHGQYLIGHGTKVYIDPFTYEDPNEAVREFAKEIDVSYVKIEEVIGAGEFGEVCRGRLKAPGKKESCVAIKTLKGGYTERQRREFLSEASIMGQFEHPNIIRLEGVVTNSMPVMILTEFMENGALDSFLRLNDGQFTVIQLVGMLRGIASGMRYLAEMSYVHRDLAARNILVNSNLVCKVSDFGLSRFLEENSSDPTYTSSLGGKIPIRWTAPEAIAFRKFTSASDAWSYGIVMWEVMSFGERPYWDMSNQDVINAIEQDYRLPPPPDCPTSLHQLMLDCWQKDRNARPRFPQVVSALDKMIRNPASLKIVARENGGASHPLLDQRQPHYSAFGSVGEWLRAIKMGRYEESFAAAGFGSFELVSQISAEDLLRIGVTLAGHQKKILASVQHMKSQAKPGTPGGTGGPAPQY
Excerpt: as §1

[12] = target: ERK1 (Homo sapiens, UniProt P27361); details: 110-kinase panel
Excerpt: as §1

[13] = target: FGF-R1 (Homo sapiens, UniProt P11362); details: 110-kinase panel, read-out: % activity remaining, FGF2R1
Excerpt: as §1

[14] = target: GCK (Homo sapiens, UniProt Q12851); details: 110-kinase panel
Excerpt: as §1

[15] = target: JNK2 (Homo sapiens, UniProt P45984); details: 110-kinase panel
JNK2, sequence (P45984 whole entry, species assumed): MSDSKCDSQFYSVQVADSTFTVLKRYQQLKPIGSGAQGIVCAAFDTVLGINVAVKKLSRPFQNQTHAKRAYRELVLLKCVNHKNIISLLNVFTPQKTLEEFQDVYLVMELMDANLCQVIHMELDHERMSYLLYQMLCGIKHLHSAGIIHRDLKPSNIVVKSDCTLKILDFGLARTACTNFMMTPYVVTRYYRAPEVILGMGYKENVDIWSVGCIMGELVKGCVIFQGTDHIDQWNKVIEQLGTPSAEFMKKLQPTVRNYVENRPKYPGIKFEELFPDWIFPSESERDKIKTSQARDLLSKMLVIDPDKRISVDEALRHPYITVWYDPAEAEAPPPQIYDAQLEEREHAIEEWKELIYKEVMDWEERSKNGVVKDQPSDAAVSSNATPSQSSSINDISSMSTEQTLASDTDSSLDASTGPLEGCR
Excerpt: as §1

[16] = target: MAPKAP-K2 (Homo sapiens, UniProt P49137); details: 110-kinase panel, read-out: % activity remaining, MAPKAP2K2
Excerpt: as §1

[17] = target: MARK1 (Homo sapiens, UniProt Q9P0L2); details: 110-kinase panel
Excerpt: as §1

[18] = target: MARK2 (Homo sapiens, UniProt Q7KZI7); details: 110-kinase panel
MARK2, sequence (Q7KZI7 whole entry): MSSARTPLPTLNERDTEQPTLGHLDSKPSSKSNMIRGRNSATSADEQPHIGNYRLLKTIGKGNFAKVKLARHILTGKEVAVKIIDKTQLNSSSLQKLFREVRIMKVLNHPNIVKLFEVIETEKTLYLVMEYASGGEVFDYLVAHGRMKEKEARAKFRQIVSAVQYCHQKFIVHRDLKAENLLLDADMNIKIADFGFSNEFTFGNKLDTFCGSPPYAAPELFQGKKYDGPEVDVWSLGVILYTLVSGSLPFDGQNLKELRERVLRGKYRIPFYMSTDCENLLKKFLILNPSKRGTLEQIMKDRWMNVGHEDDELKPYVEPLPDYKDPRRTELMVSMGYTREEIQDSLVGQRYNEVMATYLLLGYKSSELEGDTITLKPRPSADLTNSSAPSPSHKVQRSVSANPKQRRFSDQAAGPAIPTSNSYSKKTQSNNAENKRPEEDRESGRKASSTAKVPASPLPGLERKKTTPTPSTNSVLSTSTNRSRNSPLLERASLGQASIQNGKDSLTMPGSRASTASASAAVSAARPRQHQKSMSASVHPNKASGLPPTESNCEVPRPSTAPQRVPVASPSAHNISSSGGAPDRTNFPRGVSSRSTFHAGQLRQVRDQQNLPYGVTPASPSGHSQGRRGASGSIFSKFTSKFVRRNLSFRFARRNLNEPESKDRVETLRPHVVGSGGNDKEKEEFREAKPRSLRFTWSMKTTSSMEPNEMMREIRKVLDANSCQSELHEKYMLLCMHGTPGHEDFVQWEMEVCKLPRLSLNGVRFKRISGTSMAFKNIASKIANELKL
Excerpt: as §1

[19] = target: MEKK1 (Homo sapiens, UniProt Q13233); details: 110-kinase panel
Excerpt: as §1

[20] = target: MELK (Homo sapiens, UniProt Q14680); details: 110-kinase panel
Excerpt: as §1

[21] = target: MKK6 (Homo sapiens, UniProt P52564); details: 110-kinase panel
Excerpt: as §1

[22] = target: MLK1 (Homo sapiens, UniProt P80192); details: 110-kinase panel
Excerpt: as §1

[23] = target: MNK1 (Homo sapiens, UniProt Q9BUB5); details: 110-kinase panel
Excerpt: as §1

[24] = target: MNK2 (Homo sapiens, UniProt Q9HBH9); details: 110-kinase panel
MNK2, sequence (Q9HBH9 whole entry): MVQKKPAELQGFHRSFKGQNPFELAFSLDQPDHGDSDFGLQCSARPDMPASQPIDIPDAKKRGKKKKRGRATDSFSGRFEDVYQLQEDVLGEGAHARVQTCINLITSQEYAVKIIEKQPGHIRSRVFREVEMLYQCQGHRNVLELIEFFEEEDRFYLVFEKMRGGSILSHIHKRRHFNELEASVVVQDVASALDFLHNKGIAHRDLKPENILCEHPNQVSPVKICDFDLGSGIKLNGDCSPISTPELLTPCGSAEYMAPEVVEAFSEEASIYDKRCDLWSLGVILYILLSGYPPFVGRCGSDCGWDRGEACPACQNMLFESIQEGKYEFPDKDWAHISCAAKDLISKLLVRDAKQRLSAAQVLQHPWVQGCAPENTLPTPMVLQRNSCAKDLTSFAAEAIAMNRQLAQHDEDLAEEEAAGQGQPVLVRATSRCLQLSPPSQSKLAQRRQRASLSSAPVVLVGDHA
Excerpt: as §1

[25] = target: MST4 (Homo sapiens, UniProt Q9P289); details: 110-kinase panel
Excerpt: as §1

[26] = target: NEK2a (Homo sapiens, UniProt P51955); details: 110-kinase panel
Excerpt: as §1

[27] = target: PHK (Homo sapiens, UniProt Q16816); details: 110-kinase panel
Excerpt: as §1

[28] = target: PIM2 (Homo sapiens, UniProt Q9P1W9); details: 110-kinase panel
Excerpt: as §1

[29] = target: PIM3 (Homo sapiens, UniProt Q86V86); details: 110-kinase panel
Excerpt: as §1

[30] = target: PKBb (Homo sapiens, UniProt P31751); details: 110-kinase panel
Excerpt: as §1

[31] = target: PRAK (Homo sapiens, UniProt Q8IW41); details: 110-kinase panel
Excerpt: as §1

[32] = target: RSK2 (Homo sapiens, UniProt P51812); details: 110-kinase panel
Excerpt: as §1

[33] = target: TAO1 (Homo sapiens, UniProt Q7L7X3); details: 110-kinase panel
TAO1, sequence (Q7L7X3 whole entry): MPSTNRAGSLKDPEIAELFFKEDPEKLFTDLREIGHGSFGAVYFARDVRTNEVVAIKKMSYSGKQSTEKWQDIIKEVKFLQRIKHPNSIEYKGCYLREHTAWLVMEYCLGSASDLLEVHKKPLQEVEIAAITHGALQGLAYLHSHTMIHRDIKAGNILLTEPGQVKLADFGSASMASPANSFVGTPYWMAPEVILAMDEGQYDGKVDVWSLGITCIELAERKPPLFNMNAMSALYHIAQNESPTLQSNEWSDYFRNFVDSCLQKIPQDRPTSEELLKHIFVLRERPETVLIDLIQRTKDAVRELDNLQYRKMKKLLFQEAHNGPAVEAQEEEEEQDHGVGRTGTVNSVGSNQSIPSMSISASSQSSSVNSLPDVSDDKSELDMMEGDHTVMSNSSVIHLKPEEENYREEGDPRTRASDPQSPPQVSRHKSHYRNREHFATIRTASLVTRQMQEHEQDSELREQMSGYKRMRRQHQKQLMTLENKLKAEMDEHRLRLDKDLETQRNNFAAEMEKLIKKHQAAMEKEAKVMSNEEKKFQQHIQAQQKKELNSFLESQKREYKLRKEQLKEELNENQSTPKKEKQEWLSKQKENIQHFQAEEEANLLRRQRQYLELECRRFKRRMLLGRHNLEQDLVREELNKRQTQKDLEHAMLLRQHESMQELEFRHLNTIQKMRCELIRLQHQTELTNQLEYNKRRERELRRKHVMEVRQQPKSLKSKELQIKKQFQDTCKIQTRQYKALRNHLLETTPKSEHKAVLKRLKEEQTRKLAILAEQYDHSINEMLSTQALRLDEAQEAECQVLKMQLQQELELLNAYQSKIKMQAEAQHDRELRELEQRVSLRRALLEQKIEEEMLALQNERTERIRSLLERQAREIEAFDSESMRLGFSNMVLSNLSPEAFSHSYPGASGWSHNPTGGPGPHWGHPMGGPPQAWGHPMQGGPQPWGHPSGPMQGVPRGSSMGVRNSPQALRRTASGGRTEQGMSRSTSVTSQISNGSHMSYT
Excerpt: as §1

[34] = target: YES1 (Homo sapiens, UniProt P07947); details: 110-kinase panel
YES1, sequence (P07947 whole entry): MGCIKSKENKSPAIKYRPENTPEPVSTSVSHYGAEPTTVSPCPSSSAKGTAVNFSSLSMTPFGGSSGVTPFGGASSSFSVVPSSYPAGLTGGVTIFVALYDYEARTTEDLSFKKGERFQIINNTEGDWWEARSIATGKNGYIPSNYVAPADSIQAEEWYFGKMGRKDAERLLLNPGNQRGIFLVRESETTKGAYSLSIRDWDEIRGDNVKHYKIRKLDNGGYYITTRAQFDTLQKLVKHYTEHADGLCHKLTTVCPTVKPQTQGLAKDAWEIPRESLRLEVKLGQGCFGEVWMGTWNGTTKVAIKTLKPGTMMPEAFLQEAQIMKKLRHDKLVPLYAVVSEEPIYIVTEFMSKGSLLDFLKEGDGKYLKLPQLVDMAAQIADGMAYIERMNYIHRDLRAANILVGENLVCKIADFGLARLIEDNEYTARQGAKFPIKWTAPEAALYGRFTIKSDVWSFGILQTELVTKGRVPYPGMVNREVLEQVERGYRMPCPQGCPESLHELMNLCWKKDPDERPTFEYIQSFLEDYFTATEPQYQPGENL
Excerpt: as §1

[35] = target: p38d MAPK (Homo sapiens, UniProt O15264); details: 110-kinase panel
p38d MAPK, sequence (O15264 whole entry): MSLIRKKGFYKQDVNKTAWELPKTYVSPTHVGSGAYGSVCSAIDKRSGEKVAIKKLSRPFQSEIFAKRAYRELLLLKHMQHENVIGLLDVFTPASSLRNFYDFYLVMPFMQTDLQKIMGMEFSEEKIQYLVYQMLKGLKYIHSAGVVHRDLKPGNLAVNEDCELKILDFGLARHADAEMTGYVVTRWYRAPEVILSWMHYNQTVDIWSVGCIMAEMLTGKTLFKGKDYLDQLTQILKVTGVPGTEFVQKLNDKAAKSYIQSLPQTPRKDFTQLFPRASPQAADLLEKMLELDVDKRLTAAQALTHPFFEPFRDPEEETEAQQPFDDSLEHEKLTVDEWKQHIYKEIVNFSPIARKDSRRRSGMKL
Excerpt: as §1

[36] = target: CK1δ (Homo sapiens, UniProt P48730); details: 50-kinase panel (MRC-PPU Express Screen)
Excerpt: as §1

For Cc1nn(C)cc1-c1nc2c(Oc3ccc(C(=O)Nc4ccccc4)cc3)c(Cl)cnc2[nH]1 [compound 28c, 4-((6-Chloro-2-(1,3-dimethyl-1H-pyrazol-4-yl)-3H-imidazo[4,5-b]pyridin-7-yl)oxy)-N-phenylbenzamide], the “% activity remaining, AMPK” value [1] was 83%, the remaining activity at 1 µM [2] was 111% and the remaining activity at 1 µM [3] was 84%. The remaining activity at 1 µM [4] was 76%, the remaining activity at 1 µM [5] was 95% and the remaining activity at 1 µM [6] was 102%. For the same compound, the remaining activity at 1 µM [7] was 112%, the remaining activity at 1 µM [8] was 127% and the remaining activity at 1 µM [9] was 91%. It also gave a remaining activity at 1 µM [10] of 106%, a remaining activity at 1 µM [11] of 102% and a remaining activity at 1 µM [12] of 172%. The remaining activity at 1 µM [13] was 82%, the remaining activity at 1 µM [14] was 98% and the remaining activity at 1 µM [15] was 90%. The remaining activity at 1 µM [16] was 91%, the remaining activity at 1 µM [17] was 103% and the remaining activity at 1 µM [18] was 104%. It also gave a remaining activity at 1 µM [19] of 93%, a remaining activity at 1 µM [20] of 79% and a remaining activity at 1 µM [21] of 95%. For the same compound, the remaining activity at 1 µM [22] was 31%, the remaining activity at 1 µM [23] was 126% and the remaining activity at 1 µM [24] was 109%. It also gave a remaining activity at 1 µM [25] of 115%, a remaining activity at 1 µM [26] of 96% and a remaining activity at 1 µM [27] of 101%. It also gave a remaining activity at 1 µM [28] of 117%, a remaining activity at 1 µM [29] of 102% and a remaining activity at 1 µM [30] of 78%. For the same compound, the remaining activity at 1 µM [31] was 103%, the remaining activity at 1 µM [32] was 94% and the remaining activity at 1 µM [33] was 100%. The remaining activity at 1 µM [34] was 111% and the remaining activity at 1 µM [35] was 102%.
In the case of Cc1nn(C)cc1-c1nc2c(Oc3ccc(C(=O)NC4CCC4)cc3)c(Cl)cnc2[nH]1 [compound 40f, 4-((6-Chloro-2-(1,3-dimethyl-1H-pyrazol-4-yl)-3H-imidazo[4,5-b]pyridin-7-yl)oxy)-N-cyclobutylbenzamide], the remaining activity at 1 µM [36] is reported as 87%.
